Experimental findings from patent publication US4400384A, “5-o-Cyanobenzyl-4,5,6,7-tetrahydrothieno [3,2-c] pyridine methanesulfonate and other novel salts thereof” (Sanofi, S.A., priority 1980, dated 1983) are described below.

SMILES strings stand for the structures. “Also recorded” adds a separate entry of the source.

Data set [1] has as its system effects of oxotremorine or reserpine. As to the kind of experiment: Modification of the effects of oxotremorine or reserpine. Format: in vivo. As to conditions: alone or together with ethyl alcohol.
A short description of the next data set: Diuretic activity. As to conditions: in vivo.
A short description of data set [2]: Hypolipidic, hypocholesterol, hypoglycemic activity. As to conditions: in vivo.
The subject of a further data set is central nervous system. As to the kind of experiment: Central nervous system activity per se, rats. Format: in vivo.
Another data set is described as follows: Anti-thrombotic activity. As to conditions: in vivo.
The test system of a further data set is dogs. As to the kind of experiment: Toxicity by oral administration in dogs. Format: in vivo. As to conditions: 33 to 100 mg/Kg/day, 24 days. As for the experimental part:
Further toxicity investigations were carried out on the MS salt by oral administration in dogs. Two groups of 10 adult dogs were selected; one group being used as the control and the second group having the MS salt administered orally in increasing dosages as follows: […]

Data set [3] has as its system blood-platelet aggregation. In words: Clinical study, second series: inhibition of blood-platelet aggregation. Format: in vivo, human. The settings on record: oral capsules, 700 mg per day, 7 days plus morning of 8th day, 11 patients. As for the experimental part:
In a second series of tests, the MS salt was again administered orally in the form of capsules containing 175 mg of the active salt. Eleven patients were treated, each patient receiving 4 capsules per day containing a total of 700 mg of MS salt divided in two portions of 350 mg morning and evening, after meals, for 7 days, and on the 8th day in the morning only. Therefore, the total amount of active ingredient (MS salt) was 5250 mg to each subject.

In data set [4] the test system is blood-platelet aggregation (collagen). In words: Inhibitor action on blood-platelet aggregation, collagen method (ex vivo after gastric tube dosing). Format: in vivo, female rats of the Wistar type. The settings on record: 100 mg/Kg base equivalent at 48, 24 and 2 h before blood drawing, controls 2.53. As for the experimental part: The inhibitor action on blood-platelet aggregation of the salts of the present invention was determined by two different standard methods known to the art.
The second method is that described in Ferrand J. C., Lale A.--NUMERATION ET AGREGATION PLAQUETTAIRE A L AIDE DE L AUTOCOUNTER. APPLICATION A L ETUDE DE LA TICLOPIDINE. COMM. SYMPOSIUM TECHNICON INDUSTRIE (PARIS, June 15, 1978); Ferrand J. C., Lale A.--EVALUATION EX-VIVO DE L AGREGATION PLAQUETTAIRE PAR UNE TECHNIQUE AUTOMATIQUE SUR SANG TOTAL COMM. SOCIETE FRANCAISE DE BIOLOGIE CLINIQUE (PARIS Sept. 28, 1979); and J. C. Ferrand, A. Lale, D. Aubert and G. Barthelemy--APPRECIATION QUANTITATIVE DE L' ACTIVITE ANTI-AGREGANTE DE LA TICLOPIDINE PAR VOIE AUTOMATIQUE. COMM. REUNION DE L' ASOCIATION FRANCAISE DE PHARMACOLOGISTES DIJON (May 2-3, 1980), and is referred to hereafter as the collagen method.
Groups of 10 female rats of the Wistar type were each dosed with one of the base or one of the salts of the invention and with the corresponding maleate salt of Amselem U.S. Pat. No. 4,097,482, at periods of 48 hours, 24 hours and 2 hours prior to drawing blood for testing by the ADP and collagen techniques referred to above. The active medicaments were administered by means of a gastric tube in the form of a 5% aqueous solution of gum arabic. A dosage level of 100 mg/Kg was used for the base, and for the salts an amount was used sufficient to provide the equivalent amount of the base portion of the salt.

A further data set relates to rabbit. As to the kind of experiment: Cardiovascular action in anesthetized rabbit. The data set is classed as in vivo. The settings on record: perfusions at high dosages.
Data set [5] is described as follows: Anti-inflammatory activity. Format: in vivo. As to conditions: result in words; listed as MS salt, methanesulfonate.

`CS(=O)(=O)O.N#Cc1ccccc1CN1CCc2sccc2C1` [Methanesulfonate, 5-o-Cyanobenzyl-4,5,6,7-tetrahydrothieno [3,2-c] pyridine methanesulfonate]: in data set [1], the “modification of the effects of oxotremorine” value was “does not modify the effects of oxotremorine” and the “modification of the effects of reserpine” value was “does not modify the effects of oxotremorine or reserpine”. Further, the diuretic activity entry in the data set “Diuretic activity” is reported as “free of diuretic activity”. In addition, in data set [2], the hypocholesterol activity result is listed as “no hypolipidic, hypocholesterol”; the hypoglycemic activity entry was “no hypolipidic, hypocholesterol, or hypoglycemic activity”; the hypolipidic activity entry is “no hypolipidic”. The “influence on the central nervous system per se, rats” value with central nervous system is given as “no influence on the central nervous system”. Also, the anti-thrombotic activity result in the data set “Anti-thrombotic activity” is recorded as “exhibits anti-thrombotic activity”. Besides, in the data set on dogs, the “deaths attributable to the salt” value was “No deaths occurred which were attributable to the MS salt”; the “hematological, blood biochemical or urinary functions” value is recorded as “No significant variations”; the vomiting result is reported as “some of the dogs experienced some vomiting”. The “inhibitory activity on blood-platelet aggregation in patients” value in [3] is given as “very effective inhibitory activity on blood-platelet aggregation”. Also, the “BLOOD PLATELET AGGREGATION, COLLAGEN” value in [4] is given as 0.59. Moreover, the cardiovascular depressive action result in the data set on rabbit is recorded as “cardiovascular depressive action”. Moreover, the anti-inflammatory activity entry in data set [5] is “free of anti-inflammatory or vasodilator activity as is the MS salt; also recorded: without anti-inflammatory activity”.
